We go through ten compounds from patent publication US9217014B2, “Antifungal agents and uses thereof” (Cidara Therapeutics, Inc., priority 2011, dated 2015).

This assay deals with C. albicans R303. Put plainly: mouse candidiasis infection model, IP administration, kidney fungal burden. The class given is in vivo. Particulars: for overall performance in reducing C. albicans CFUs in the kidneys of the mice: conclusion over all runs. The protocol:
The objective of these studies was to evaluate the efficacy of test compounds in the mouse candidiasis infection model. Amounts of test articles are uncorrected.
The strain, C. albicans R303 was transferred from frozen storage onto Sabauroud dextrose agar (SDA) plates and grown for ˜24 hr at 35° C. The inoculum was prepared by transferring colonies from the plate to phosphate buffered saline (PBS) and the concentration adjusted to approximately 10^6 CFU/mL with the aid of a spectrophotometer. The stock was diluted 1:9 to prepare the inoculum. Prior to each run the concentration was verified using the dilution plate count method.
Female CD-1 mice were used in this study. The animals were approximately seven-weeks-old at the start of the study and weighed about 15-30 g.
Mice were made neutropenic with IP injections of cyclophosphamide (150 mg/kg in 10 mL/kg) at 4 and 1 day before inoculation. Each animal was inoculated with the appropriate concentration by injecting 0.1 mL of inoculum into a tail vein. The test compounds were administered IP at 2 hr after infection.
In a typical procedure, the kidneys were collected from four mice in control group 1 (untreated) at 2 hr after infection, and from another four mice in control group 2 (untreated) at 24 hr after infection. Kidneys were removed aseptically from each mouse and were combined in a sterile tube. An aliquot (2 mL) of sterile PBS was added to each tube and the contents homogenized with a tissue homogenizer (Polytron 3100). Serial dilutions of the tissue homogenates were conducted and 0.1 mL aliquots were spread on SDA plates and the plates incubated at 35° C. overnight. The CFU/kidneys were determined from colony counts. Data were analyzed using one-way ANOVA with either the Tukey-Kramer Multiple Comparisons Test or Dunnett Test (GraphPad InStat version 3.06, GraphPad Software, San Diego, Calif.).
The data reported below are the average of four mice. Each run included a separate control and each is tabulated separately.

[1] abbreviates: Candida albicans, R303, ip, 24 h, Fourth run, IP 0.5 mg/kg, read-out: Difference from 24-h control.
Setting [2] is: Candida albicans, R303, ip, 24 h, Fourth run, IP 1.5 mg/kg, read-out: Difference from 24-h control.
[3] abbreviates: Fourth run, IP 0.5 mg/kg, kidneys 24 h after infection.
Setting [4] is: Fourth run, IP 1.5 mg/kg, kidneys 24 h after infection.
[5] abbreviates: Candida albicans, R303, ip, 24 h, Third run, IP 0.5 mg/kg, read-out: Difference from 24-h control.
[6] abbreviates: Candida albicans, R303, ip, 24 h, Third run, IP 1.5 mg/kg, read-out: Difference from 24-h control.
[7] abbreviates: Candida albicans, R303, ip, 24 h, Third run, IP 4.5 mg/kg, read-out: Difference from 24-h control.
Setting [8] is: Third run, IP 0.5 mg/kg, kidneys 24 h after infection.
The mark [9] stands for this setting: Third run, IP 1.5 mg/kg, kidneys 24 h after infection.
Setting [10] is: Third run, IP 4.5 mg/kg, kidneys 24 h after infection.

Read-outs that look alike come from different tables or passages of the source.

`CCCCCOc1ccc(-c2ccc(-c3ccc(C(=O)N[C@H]4C[C@@H](O)C(NCCNCCN)NC(=O)C5[C@@H](O)[C@@H](C)CN5C(=O)C([C@@H](C)O)NC(=O)C([C@H](O)[C@@H](O)c5ccc(O)cc5)NC(=O)C5C[C@@H](O)CC5C(=O)C([C@@H](C)O)NC4=O)cc3)cc2)cc1` (stereo partly drawn) [compound 17]: the “overall performance in reducing C. albicans CFUs in the kidneys of the mice” value was “performed strongly”. Further, under setting [1], the log reduction at 0.5 mg/kg was found to be 1.64. The log reduction at 1.5 mg/kg under setting [2] was determined as 3.91. Moreover, under setting [3], the “Mean log10 CFU/kidneys (±SEM)” value stood at 3.46 ± 0.06 log10 CFU/kidneys. Moreover, under setting [4], the “Mean log10 CFU/kidneys (±SEM)” value is recorded as 1.19 ± 0.12 log10 CFU/kidneys.

On to `CCCCCOc1ccc(-c2ccc(-c3ccc(C(=O)N[C@H]4C[C@@H](O)C(OCCN)NC(=O)C5[C@@H](O)[C@@H](C)CN5C(=O)C([C@@H](C)O)NC(=O)C([C@H](O)[C@@H](O)c5ccc(O)cc5)NC(=O)C5C[C@@H](O)CN5C(=O)C([C@@H](C)O)NC4=O)cc3)cc2)cc1` (stereo partly drawn) [compound 4], for which the “overall performance in reducing C. albicans CFUs in the kidneys of the mice” value is recorded as “performed strongly”. Further, the log reduction at 5 mg/kg (Candida albicans, R303, ip, 24 h, First run, IP 5 mg/kg, read-out: Difference from 24-h control) was 4.47. In addition, the log reduction at 0.5 mg/kg (Candida albicans, R303, ip, 24 h, Second run, IP 0.5 mg/kg, read-out: Difference from 24-h control) was determined as 1.5. For the same compound, for the setting “Candida albicans, R303, ip, 24 h, Second run, IP 4.5 mg/kg, read-out: Difference from 24-h control”, the log reduction at 4.5 mg/kg is 4.22. Moreover, the “Mean log10 CFU/kidneys (±SD)” value (First run, IP 5 mg/kg, neutropenic mice, kidneys 24 h after infection) is listed as 0.73 ± 0.85 log10 CFU/kidneys. Further, the “Mean log10 CFU/kidneys (±SEM)” value (Second run, IP 0.5 mg/kg, kidneys 24 h after infection) was 3.38 ± 0.10 log10 CFU/kidneys. For the same compound, the “Mean log10 CFU/kidneys (±SEM)” value (Second run, IP 1.5 mg/kg, kidneys 24 h after infection) turned out to be 0.65 ± 0.38 log10 CFU/kidneys. In addition, under “Second run, IP 4.5 mg/kg, kidneys 24 h after infection”, the “Mean log10 CFU/kidneys (±SEM)” value came out at 0.65 ± 0.38 log10 CFU/kidneys.

With `CCCCCOc1ccc(-c2ccc(-c3ccc(C(=O)N[C@H]4C[C@@H](O)C(OCCNCCN)NC(=O)C5[C@@H](O)[C@@H](C)CN5C(=O)C([C@@H](C)O)NC(=O)C([C@H](O)[C@@H](O)c5ccc(O)cc5)NC(=O)C5C[C@@H](O)CN5C(=O)C([C@@H](C)O)NC4=O)cc3)cc2)cc1` (stereo partly drawn) [compound 7], the “overall performance in reducing C. albicans CFUs in the kidneys of the mice” value is reported as “performed strongly”. Also, the log reduction at 0.5 mg/kg under setting [1] was 0.78. Moreover, the log reduction at 1.5 mg/kg under setting [2] stood at 3.55. For the same compound, the “Mean log10 CFU/kidneys (±SEM)” value under setting [3] came out at 4.33 ± 0.17 log10 CFU/kidneys. Moreover, the “Mean log10 CFU/kidneys (±SEM)” value under setting [4] is 1.55 ± 0.19 log10 CFU/kidneys.

With `CC[C@H](C)C[C@H](C)CCCCCCCCC(=O)N[C@H]1C[C@@H](O)[C@@H](NCCN)NC(=O)[C@@H]2[C@@H](O)CCN2C(=O)[C@H]([C@H](O)CCN)NC(=O)[C@H]([C@H](O)[C@@H](O)c2ccc(O)cc2)NC(=O)[C@@H]2C[C@@H](O)CN2C(=O)[C@H]([C@@H](C)O)NC1=O` [caspofungin, reference compound], the log reduction at 0.5 mg/kg under setting [5] was determined as 4.88. For the same compound, under setting [6], the log reduction at 1.5 mg/kg is 4.48. Also, the log reduction at 4.5 mg/kg under setting [7] worked out at 5.2. The “Mean log10 CFU/kidneys (±SEM)” value under setting [8] amounted to 0.33 ± 0.33 log10 CFU/kidneys, the “Mean log10 CFU/kidneys (±SEM)” value under setting [9] came out at 0.73 ± 0.42 log10 CFU/kidneys and the “Mean log10 CFU/kidneys (±SEM)” value under setting [10] is 0.00 ± 0.00 log10 CFU/kidneys.

On to `CCCCCOc1ccc(-c2ccc(-c3ccc(C(=O)N[C@H]4C[C@@H](O)C(NCCOCCOCCN)NC(=O)C5[C@@H](O)[C@@H](C)CN5C(=O)C([C@@H](C)O)NC(=O)C([C@H](O)[C@@H](O)c5ccc(O)cc5)NC(=O)C5C[C@@H](O)CC5C(=O)C([C@@H](C)O)NC4=O)cc3)cc2)cc1` (stereo partly drawn) [compound 13], for which the “overall performance in reducing C. albicans CFUs in the kidneys of the mice” value was “performed moderately”. Besides, the log reduction at 0.5 mg/kg under setting [1] is 2.29. Besides, the log reduction at 1.5 mg/kg under setting [2] stood at 2.8. Under setting [3], the “Mean log10 CFU/kidneys (±SEM)” value amounted to 2.81 ± 0.23 log10 CFU/kidneys. The “Mean log10 CFU/kidneys (±SEM)” value under setting [4] stood at 2.31 ± 0.19 log10 CFU/kidneys.

`CCCCCOc1ccc(-c2ccc(-c3ccc(C(=O)N[C@H]4C[C@@H](O)C(NCCOCCN)NC(=O)C5[C@@H](O)[C@@H](C)CN5C(=O)C([C@@H](C)O)NC(=O)C([C@H](O)[C@@H](O)c5ccc(O)cc5)NC(=O)C5C[C@@H](O)CC5C(=O)C([C@@H](C)O)NC4=O)cc3)cc2)cc1` (stereo partly drawn) [compound 12]: the “overall performance in reducing C. albicans CFUs in the kidneys of the mice” value is reported as “performed strongly”. Besides, under setting [1], the log reduction at 0.5 mg/kg is 1.9. Further, the log reduction at 1.5 mg/kg under setting [2] worked out at 3.5. For the same compound, the “Mean log10 CFU/kidneys (±SEM)” value under setting [3] is on record as 3.20 ± 0.11 log10 CFU/kidneys. For the same compound, the “Mean log10 CFU/kidneys (±SEM)” value under setting [4] worked out at 1.60 ± 0.09 log10 CFU/kidneys.

Turning to `CCCCCOc1ccc(-c2ccc(-c3ccc(C(=O)N[C@H]4C[C@@H](O)C(NCCOCCOC)NC(=O)C5[C@@H](O)[C@@H](C)CN5C(=O)C([C@@H](C)O)NC(=O)C([C@H](O)[C@@H](O)c5ccc(O)cc5)NC(=O)C5C[C@@H](O)CN5C(=O)C([C@@H](C)O)NC4=O)cc3)cc2)cc1` (stereo partly drawn) [compound 9], the “overall performance in reducing C. albicans CFUs in the kidneys of the mice” value is recorded as “performed poorly”. Besides, the log reduction at 0.5 mg/kg under setting [1] was 0.07. Further, the log reduction at 1.5 mg/kg under setting [2] was 1.02. Besides, under setting [3], the “Mean log10 CFU/kidneys (±SEM)” value is recorded as 5.04 ± 0.13 log10 CFU/kidneys. Moreover, the “Mean log10 CFU/kidneys (±SEM)” value under setting [4] amounted to 4.09 ± 0.23 log10 CFU/kidneys.

With `CCC(C)CC(C)CCCCCCCCC(=O)N[C@H]1C[C@@H](O)C(NCCNCCO)NC(=O)C2[C@@H](O)CCN2C(=O)C([C@H](O)CCN)NC(=O)C([C@H](O)[C@@H](O)c2ccc(O)cc2)NC(=O)C2C[C@@H](O)CC2C(=O)C([C@@H](C)O)NC1=O` (stereo partly drawn) [compound 21], the “overall performance in reducing C. albicans CFUs in the kidneys of the mice” value is “performed strongly”. Further, under setting [5], the log reduction at 0.5 mg/kg turned out to be 3.63. The log reduction at 1.5 mg/kg under setting [6] is 4.48. Further, the log reduction at 4.5 mg/kg under setting [7] is 4.03. Further, the “Mean log10 CFU/kidneys (±SEM)” value under setting [8] is 1.57 ± 0.16 log10 CFU/kidneys. Also, under setting [9], the “Mean log10 CFU/kidneys (±SEM)” value is 0.73 ± 0.42 log10 CFU/kidneys. Also, the “Mean log10 CFU/kidneys (±SEM)” value under setting [10] is 1.17 ± 0.40 log10 CFU/kidneys.

Turning to `CCC(C)CC(C)CCCCCCCCC(=O)N[C@H]1C[C@@H](O)C(NCCNCCN)NC(=O)C2[C@@H](O)CCN2C(=O)C([C@H](O)CCN)NC(=O)C([C@H](O)[C@@H](O)c2ccc(O)cc2)NC(=O)C2C[C@@H](O)CC2C(=O)C([C@@H](C)O)NC1=O` (stereo partly drawn) [compound 22], the “overall performance in reducing C. albicans CFUs in the kidneys of the mice” value is given as “performed strongly”. Also, the log reduction at 0.5 mg/kg under setting [5] amounted to 3.56. In addition, the log reduction at 1.5 mg/kg under setting [6] came out at 5.2. In addition, under setting [7], the log reduction at 4.5 mg/kg was 4.55. Further, under setting [8], the “Mean log10 CFU/kidneys (±SEM)” value was 1.65 ± 0.16 log10 CFU/kidneys. Besides, under setting [9], the “Mean log10 CFU/kidneys (±SEM)” value worked out at 0.00 ± 0.00 log10 CFU/kidneys. Further, under setting [10], the “Mean log10 CFU/kidneys (±SEM)” value stood at 0.65 ± 0.38 log10 CFU/kidneys.

With `CCC(C)CC(C)CCCCCCCCC(=O)N[C@H]1C[C@@H](O)C(NCCOCCN)NC(=O)C2[C@@H](O)CCN2C(=O)C([C@H](O)CCN)NC(=O)C([C@H](O)[C@@H](O)c2ccc(O)cc2)NC(=O)C2C[C@@H](O)CC2C(=O)C([C@@H](C)O)NC1=O` (stereo partly drawn) [compound 20], the “overall performance in reducing C. albicans CFUs in the kidneys of the mice” value is recorded as “performed strongly”. In addition, under setting [5], the log reduction at 0.5 mg/kg is 3.25. Besides, the log reduction at 1.5 mg/kg under setting [6] was 4.48. In addition, the log reduction at 4.5 mg/kg under setting [7] turned out to be 3.75. Moreover, the “Mean log10 CFU/kidneys (±SEM)” value under setting [8] is listed as 1.96 ± 0.18 log10 CFU/kidneys. In addition, the “Mean log10 CFU/kidneys (±SEM)” value under setting [9] is listed as 0.73 ± 0.42 log10 CFU/kidneys. For the same compound, under setting [10], the “Mean log10 CFU/kidneys (±SEM)” value is reported as 1.45 ± 0.09 log10 CFU/kidneys.
